In the test the test system is methicillin-resistant Staphylococcus aureus (MRSA). Briefly: In vitro bactericidal test on MRSA isolates (viable CFU/mL after 24 hours of treatment). The note with it: average across three MRSA isolates.

The values that follow come from patent publication US12186293B2, “Therapeutic methods using decanoic acid and amino acids” (Wintermute Biomedical, Inc., priority 2018, dated 2025).

Each structure is given as a SMILES string.

Protocol: Note that efficacy is reported in terms of the viable bacterial concentration (in CFU/mL) remaining after 24 hours of treatment with the drug product (in compliance with CLSI guidelines).
In this example, bacteria (MRSA isolates) are put onto fresh plates and allowed to grow for 30 hours. A suspension inoculum is made from the plates (e.g., a 1 McFarland solution in sterile water), from which the turbidity may be optically read. A standard inoculum may then be cultured in media and 100 μL of that solution combined with 100 μL of drug product and grown at various dilutions for 16-20 hrs. Duplicates may then be examined (e.g., following pelleting at 7,000 RPM for 15 min, resuspended in PBS and serial dilutions plated and grown for 24 hrs.). Duplicate plates at multiple dilutions may then be imaged and colonies counted.

As for `CCCCCCCCCCCCCCCCO` [CA, cetyl alcohol], the “effect of increasing amounts of CA in the UCA and LARG composition” value is “decrease in efficacy”.
